In PubChem BioAssay (NCI):
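Cultured in 96-well plates, cells were exposed to test compound for 48 hours across five concentrations. TGI is the concentration that stops growth completely.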

Experiments:
Experiment in all cases: NCI anticancer screen, dose series, 48 h
SN12C renal = system: SN12C renal
TK-10 renal = system: TK-10 renal
CAKI-1 renal = system: CAKI-1 renal
NCI-H226 lung = system: NCI-H226 lung
IGROV1 ovarian = system: IGROV1 ovarian
MCF7 breast = system: MCF7 breast
SK-MEL-28 melanoma = system: SK-MEL-28 melanoma
MDA-MB-231 breast = system: MDA-MB-231 breast
SK-MEL-5 melanoma = system: SK-MEL-5 melanoma
RXF 393 renal = system: RXF 393 renal
HCT-116 colon = system: HCT-116 colon
MDA-N = system: MDA-N
OVCAR-5 ovarian = system: OVCAR-5 ovarian
NCI-H23 lung = system: NCI-H23 lung
SK-MEL-2 melanoma = system: SK-MEL-2 melanoma
SK-OV-3 ovarian = system: SK-OV-3 ovarian
SF-295 CNS = system: SF-295 CNS
DU-145 prostate = system: DU-145 prostate
PC-3 prostate = system: PC-3 prostate
MOLT-4 leukemia = system: MOLT-4 leukemia
A498 renal = system: A498 renal
SR leukemia = system: SR leukemia
HCC-2998 colon = system: HCC-2998 colon
HL-60(TB) leukemia = system: HL-60(TB) leukemia
HOP-62 NSCLC = system: HOP-62 NSCLC
LOX IMVI melanoma = system: LOX IMVI melanoma
MALME-3M melanoma = system: MALME-3M melanoma
SNB-19 CNS = system: SNB-19 CNS
SW-620 colon = system: SW-620 colon
M14 melanoma = system: M14 melanoma
K-562 leukemia = system: K-562 leukemia
786-0 renal = system: 786-0 renal
SF-539 CNS = system: SF-539 CNS
OVCAR-4 ovarian = system: OVCAR-4 ovarian
UACC-257 melanoma = system: UACC-257 melanoma
MDA-MB-435 = system: MDA-MB-435
EKVX NSCLC = system: EKVX NSCLC
NCI-H460 lung = system: NCI-H460 lung
SF-268 CNS = system: SF-268 CNS
RPMI-8226 leukemia = system: RPMI-8226 leukemia
A549 NSCLC = system: A549 NSCLC
HT29 colon = system: HT29 colon
T-47D breast = system: T-47D breast
HOP-92 NSCLC = system: HOP-92 NSCLC
HCT-15 colon = system: HCT-15 colon
ACHN renal = system: ACHN renal
KM12 colon = system: KM12 colon
OVCAR-3 ovarian = system: OVCAR-3 ovarian
NCI/ADR-RES ovarian = system: NCI/ADR-RES ovarian
UO-31 renal = system: UO-31 renal
UACC-62 melanoma = system: UACC-62 melanoma
NCI-H522 lung = system: NCI-H522 lung
U251 CNS = system: U251 CNS
COLO 205 colon = system: COLO 205 colon
HS 578T breast = system: HS 578T breast
OVCAR-8 ovarian = system: OVCAR-8 ovarian
SNB-75 CNS = system: SNB-75 CNS
BT-549 breast = system: BT-549 breast
CCRF-CEM leukemia = system: CCRF-CEM leukemia

Question: For `O=C(/C=C/c1ccc(O)c(O)c1O)OCCc1ccccc1`, which TGI (SN12C renal) is on record?
Answer: 34.4 µM

Question: And the TGI (TK-10 renal)?
Answer: > 100 µM

Question: And the TGI (CAKI-1 renal)?
Answer: > 100 µM

Question: What about the TGI (NCI-H226 lung) of the same molecule?
Answer: 97.9 µM

Question: What about the TGI (IGROV1 ovarian) of the same molecule?
Answer: 84.5 µM

Question: And the TGI (MCF7 breast)?
Answer: 32.2 µM

Question: And the TGI (SK-MEL-28 melanoma)?
Answer: > 100 µM

Question: And the TGI (MDA-MB-231 breast)?
Answer: 47.3 µM

Question: And the TGI (SK-MEL-5 melanoma)?
Answer: > 100 µM

Question: And the TGI (RXF 393 renal)?
Answer: 98.2 µM

Question: And the TGI (HCT-116 colon)?
Answer: 26.3 µM

Question: And the TGI (MDA-N)?
Answer: 34 µM

Question: And the TGI (OVCAR-5 ovarian)?
Answer: > 100 µM

Question: And the TGI (NCI-H23 lung)?
Answer: 48.7 µM

Question: And the TGI (SK-MEL-2 melanoma)?
Answer: > 100 µM

Question: And the TGI (SK-OV-3 ovarian)?
Answer: > 100 µM

Question: And the TGI (SF-295 CNS)?
Answer: 35.5 µM

Question: What about the TGI (DU-145 prostate) of the same molecule?
Answer: > 100 µM

Question: And the TGI (PC-3 prostate)?
Answer: > 100 µM

Question: What about the TGI (MOLT-4 leukemia) of the same molecule?
Answer: 53.8 µM

Question: And the TGI (A498 renal)?
Answer: > 100 µM

Question: What about the TGI (SR leukemia) of the same molecule?
Answer: 40.6 µM

Question: And the TGI (HCC-2998 colon)?
Answer: > 100 µM

Question: What about the TGI (HL-60(TB) leukemia) of the same molecule?
Answer: 48.8 µM

Question: What about the TGI (HOP-62 NSCLC) of the same molecule?
Answer: 55.5 µM

Question: What about the TGI (LOX IMVI melanoma) of the same molecule?
Answer: 53.5 µM

Question: What about the TGI (MALME-3M melanoma) of the same molecule?
Answer: > 100 µM

Question: And the TGI (SNB-19 CNS)?
Answer: > 100 µM

Question: And the TGI (SW-620 colon)?
Answer: 49.2 µM

Question: And the TGI (M14 melanoma)?
Answer: 37.9 µM

Question: And the TGI (K-562 leukemia)?
Answer: 37.3 µM

Question: What about the TGI (786-0 renal) of the same molecule?
Answer: 35.5 µM

Question: And the TGI (SF-539 CNS)?
Answer: 70.7 µM

Question: And the TGI (OVCAR-4 ovarian)?
Answer: 29.5 µM

Question: And the TGI (UACC-257 melanoma)?
Answer: > 100 µM

Question: What about the TGI (MDA-MB-435) of the same molecule?
Answer: 36.2 µM

Question: And the TGI (EKVX NSCLC)?
Answer: > 100 µM

Question: What about the TGI (NCI-H460 lung) of the same molecule?
Answer: 42.7 µM

Question: And the TGI (SF-268 CNS)?
Answer: > 100 µM

Question: What about the TGI (RPMI-8226 leukemia) of the same molecule?
Answer: 52.6 µM

Question: And the TGI (A549 NSCLC)?
Answer: 52.8 µM

Question: What about the TGI (HT29 colon) of the same molecule?
Answer: 53.4 µM

Question: What about the TGI (T-47D breast) of the same molecule?
Answer: > 100 µM

Question: And the TGI (HOP-92 NSCLC)?
Answer: > 100 µM

Question: What about the TGI (HCT-15 colon) of the same molecule?
Answer: 51.9 µM

Question: And the TGI (ACHN renal)?
Answer: > 100 µM

Question: And the TGI (KM12 colon)?
Answer: 46.4 µM

Question: And the TGI (OVCAR-3 ovarian)?
Answer: 46.5 µM

Question: What about the TGI (NCI/ADR-RES ovarian) of the same molecule?
Answer: 70.7 µM

Question: And the TGI (UO-31 renal)?
Answer: 78.1 µM

Question: And the TGI (UACC-62 melanoma)?
Answer: > 100 µM

Question: What about the TGI (NCI-H522 lung) of the same molecule?
Answer: 54.9 µM

Question: And the TGI (U251 CNS)?
Answer: 80.6 µM

Question: And the TGI (COLO 205 colon)?
Answer: 64.5 µM

Question: What about the TGI (HS 578T breast) of the same molecule?
Answer: > 100 µM

Question: `N#CCCN(CCN(C(=O)Nc1ccccc1)c1ccccc1)C(=O)Nc1ccccc1` was tested. Which TGI (SN12C renal) did it give?
Answer: > 100 µM

Question: What about the TGI (TK-10 renal) of the same molecule?
Answer: > 100 µM

Question: What about the TGI (CAKI-1 renal) of the same molecule?
Answer: > 63.1 µM

Question: What about the TGI (NCI-H226 lung) of the same molecule?
Answer: > 100 µM

Question: And the TGI (IGROV1 ovarian)?
Answer: > 100 µM

Question: What about the TGI (MCF7 breast) of the same molecule?
Answer: > 100 µM

Question: And the TGI (SK-MEL-28 melanoma)?
Answer: > 100 µM

Question: What about the TGI (MDA-MB-231 breast) of the same molecule?
Answer: > 100 µM

Question: What about the TGI (SK-MEL-5 melanoma) of the same molecule?
Answer: > 100 µM

Question: And the TGI (RXF 393 renal)?
Answer: > 90.1 µM

Question: What about the TGI (HCT-116 colon) of the same molecule?
Answer: > 100 µM

Question: What about the TGI (MDA-N) of the same molecule?
Answer: > 100 µM

Question: And the TGI (OVCAR-5 ovarian)?
Answer: > 100 µM

Question: And the TGI (NCI-H23 lung)?
Answer: > 100 µM

Question: And the TGI (SK-MEL-2 melanoma)?
Answer: > 100 µM

Question: What about the TGI (SK-OV-3 ovarian) of the same molecule?
Answer: > 100 µM

Question: And the TGI (OVCAR-8 ovarian)?
Answer: > 100 µM

Question: What about the TGI (SNB-75 CNS) of the same molecule?
Answer: > 100 µM

Question: And the TGI (SF-295 CNS)?
Answer: > 100 µM

Question: And the TGI (DU-145 prostate)?
Answer: > 100 µM

Question: What about the TGI (PC-3 prostate) of the same molecule?
Answer: > 100 µM

Question: What about the TGI (MOLT-4 leukemia) of the same molecule?
Answer: > 84.5 µM

Question: And the TGI (A498 renal)?
Answer: > 100 µM

Question: And the TGI (SR leukemia)?
Answer: > 100 µM

Question: And the TGI (HCC-2998 colon)?
Answer: > 100 µM

Question: And the TGI (HL-60(TB) leukemia)?
Answer: 34.7 µM

Question: What about the TGI (HOP-62 NSCLC) of the same molecule?
Answer: > 100 µM

Question: What about the TGI (LOX IMVI melanoma) of the same molecule?
Answer: > 100 µM

Question: What about the TGI (MALME-3M melanoma) of the same molecule?
Answer: > 100 µM

Question: And the TGI (SNB-19 CNS)?
Answer: > 100 µM

Question: And the TGI (SW-620 colon)?
Answer: > 100 µM

Question: And the TGI (M14 melanoma)?
Answer: > 100 µM

Question: And the TGI (K-562 leukemia)?
Answer: > 92.1 µM

Question: And the TGI (786-0 renal)?
Answer: > 100 µM

Question: What about the TGI (SF-539 CNS) of the same molecule?
Answer: > 100 µM

Question: And the TGI (BT-549 breast)?
Answer: > 100 µM

Question: And the TGI (OVCAR-4 ovarian)?
Answer: > 100 µM

Question: And the TGI (UACC-257 melanoma)?
Answer: > 100 µM

Question: And the TGI (MDA-MB-435)?
Answer: > 100 µM

Question: What about the TGI (EKVX NSCLC) of the same molecule?
Answer: > 100 µM

Question: And the TGI (NCI-H460 lung)?
Answer: > 100 µM

Question: And the TGI (SF-268 CNS)?
Answer: > 100 µM

Question: And the TGI (RPMI-8226 leukemia)?
Answer: > 69.2 µM

Question: What about the TGI (A549 NSCLC) of the same molecule?
Answer: > 100 µM

Question: What about the TGI (HT29 colon) of the same molecule?
Answer: > 100 µM

Question: What about the TGI (T-47D breast) of the same molecule?
Answer: > 100 µM

Question: What about the TGI (CCRF-CEM leukemia) of the same molecule?
Answer: 47.7 µM

Question: And the TGI (HOP-92 NSCLC)?
Answer: > 100 µM

Question: And the TGI (HCT-15 colon)?
Answer: > 100 µM

Question: And the TGI (ACHN renal)?
Answer: > 100 µM

Question: And the TGI (KM12 colon)?
Answer: > 100 µM

Question: And the TGI (OVCAR-3 ovarian)?
Answer: > 100 µM

Question: And the TGI (NCI/ADR-RES ovarian)?
Answer: > 100 µM

Question: What about the TGI (UO-31 renal) of the same molecule?
Answer: > 100 µM

Question: What about the TGI (UACC-62 melanoma) of the same molecule?
Answer: > 100 µM

Question: And the TGI (NCI-H522 lung)?
Answer: > 100 µM

Question: And the TGI (U251 CNS)?
Answer: > 100 µM

Question: And the TGI (COLO 205 colon)?
Answer: > 100 µM
